Assay [1] concerns the target vancomycin-susceptible receptor (VSR). Kind of assay: Cantilever surface stress assay, antibiotic binding to surface-bound VSR. An excerpt:
(§1) To probe different pathways of signal-transduction central to the efficacy of recognition mechanisms and therapeutic agents, we used cantilever force-based technology. Because of its nanometre strain sensitivity, this technology can directly measure the smallest changes in mechanical strain caused by specific antibiotic binding. The principles of force transduction and measurements are well established[18][19][20] and many studies focused on cantilever sensors have been published. Unlike conventional methods such as 1H–NMR spectroscopy, enzyme-linked immunosorbent assays (ELISA)[29] or surface plasmon resonance (SPR)[30] which measure optical signatures of chemical binding, cantilever technology has the capacity to resolve forces at the level of individual hydrogen bonds, making it uniquely suited to provide important insight into force transduction mechanisms, such as cell wall strain in response to antibiotic binding. Moreover, in contrast to direct current or low-frequency signals, which cannot probe beyond electrical double layers formed by screening salts, mechanical signaling is sensitive to ligands even when they are located at distance of ~1 nm or more from the sensor surface (Fig. 1d). Measurements were performed using cantilevers functionalized with self-assembled monolayers (SAM) of VSR, VRR or reference polyethylene glycol (PEG) (see methods & materials, Supplementary Information). The specificity of mechanical signaling was achieved by performing measurements in differential mode, where the bending response of the reference PEG-coated cantilevers, (known to reduce nonspecific drug adsorption[8][14][34]) was subtracted from VSR- and VRR-coated cantilever signals (see cantilever measurement procedure, method section).
(§2) Thus far, we have discussed the impact of near-membrane layer on the association kinetics, mechanical force transduction, specificity of molecular recognition and microbial susceptibility. To gain mechanistic insight (Fig. 7a,b), we averaged measurements for each drug-target interaction over four separate chips and the results are summarized in Fig. 7c,d. […] The mechanical signaling response follows an s-shaped curve undergoing its steepest rise at N ~1/Ksurf before reaching a plateau when the binding sites are fully occupied (Fig. 7c,d). To calculate Ksurf, we used equation (2)[14], based on the conventional Hill adsorption model.
(§3) Here, Ksurf is raised to the power n to ensure that it maintains the dimension of concentration as n varies. Setting n = 1 yields the Langmuir isotherm where the reactions occur independently, while n > 1 corresponds to positive co-operative polyvalent interactions and n < 1 is a measure of negative co-operativity. In Fig. 7c,d, we find that the mechanical response at VSR levels off at 50 μM concentration for all antibiotics. In contrast, for the drug-resistant VRR a concentration of more than 1000 μM of Van, Rist or CE was required to reach indistinguishable maximum signals. The outcome of the fit using three parameters (n, Ksurf and σmax) is summarized in Supplementary Fig. 2. The calculated Ksurf for Ori binding to VSR is 40 ± 10 nM, which is 25 times stronger than for Van where Ksurf is 1.0 ± 0.3 μM. The Ksurf of Ori against VRR is 70 ± 10 nM, an astonishing 11,000 times stronger than for Van where Ksurf is 800 ± 300 μM. As a further measurement control and to confirm the accuracy of surface binding affinity, we used a commercially available SPR method (Fig. 7e,f and Supplementary SPR sensor chip functionalization procedure), where the detection of ligands is at a single planar metal surface.
(§4) The modified cantilever chip was mounted in a sealed liquid cell. The alignment of each light source onto the free end of each cantilever was confirmed by heating liquid chamber to 1 °C rise. […]

Assay [2] deals with vancomycin-resistant receptor (VRR). Kind of assay: Cantilever surface stress assay, antibiotic binding to surface-bound VRR.
Source text: as §1, §2, §3, §4

The subject of assay [3] is methicillin-susceptible Staphylococcus aureus (MSSA) ATCC 29213. Kind of assay: MIC by broth microdilution (CLSI M07-A8), with PS80. The assay is classed as cell-based. To be noted: MSSA ATCC 29213, with PS80. Here is the method:
Determination of MIC values to methicillin-susceptible Staphylococcus aureus (MSSA).
Minimum Inhibitory Concentration (MIC) is defined as the lowest concentration of antibacterial agent required to inhibit growth of a microorganism after incubation. The antibiotics vancomycin (Van) and ristomycin (Rist) were obtained from Sigma-Aldrich while chloroeremomycin (CE) and oritavancin (Ori) were obtained from the Medicine Company Inc., U.S.A. To prepare antibiotic stock solutions for MICs assay, 5 mg/ml of each drug was dissolved in water containing an appropriate volume of 0.002% polysorbate-80 or PS80 obtained from Sigma-Aldrich which corresponds to 20 µM to eliminate nonspecific interactions of drugs to surfaces particularly for Ori which is known to bind to glass and plastics13. Microbiological broth with PS80 maintained at 20 µM was used in the drug dilution steps until the required final (assay) concentration. Diluted concentrations of each drug were assayed by adding an inoculum of methicillin-susceptible Staphylococcus aureus (MSSA) ATCC 29213 cells and the MIC determined by broth microdilution according to Clinical Laboratory Standards Institute (CLSI) methodology M07-A8 (CLSI 2009a)14. The results as shown in Supplementary Table S2 for each antibiotic against clinical isolate of MSSA ATCC 29213 strains conducted in the presence of […]
PS80 are within the quality control ranges defined in the guideline15. […]
On the technique in general: Broth dilution looks for growth in wells or tubes with falling amounts of substance.

Assay [4] deals with vancomycin-susceptible receptor (VSR). To be noted: ref. 4 (Rist), ref. 3 (CE), supplementary references, read-out: Ksurf SPR; cited from earlier work.
Assay [5] concerns the target vancomycin-resistant receptor (VRR). To be noted: ref. 3 (Van), ref. 5 (Rist), ref. 4 (CE), supplementary references, read-out: Ksurf SPR; cited from earlier work.
For the next assay, the target named is VSR (Ac-VSR) in solution. To be noted: VSR in solution; ref. 1 (Van, Rist), ref. 7 (CE), ref. 2 (Ori), supplementary references; read-out: Ksurf Solution; cited from earlier work.
Another assay deals with VRR in solution. The conditions noted are these: ref. 1 (Van), ref. 6 (Rist), ref. 8 (CE), ref. 2 (Ori), supplementary references, read-out: Ksurf Solution; cited from earlier work.
The conditions of assay [6]: ligand-ligand dissociation constant in solution; ref. 2 (Van, CE, Ori), ref. 5 (Rist), supplementary references; read-out: K1 Solution (complex aggregation constant); cited from earlier work.
In assay [7] the test system is vancomycin resistant E. faecalis (VRE). The conditions noted are these: absence of polysorbate-80; ref. 2 (Van), ref. 5 (Rist, CE), ref. 9 (Ori), supplementary references; cited from earlier work.
Assay [8] deals with vancomycin susceptible E. faecalis (VSE). The conditions noted are these: absence of polysorbate-80; ref. 9 (Van, CE, Ori), ref. 10 (Rist), supplementary references; cited from earlier work.

For orientation: MIC means the lowest concentration found to suppress growth. The low end stands for greater potency, the high end for weaker potency.

Where two headings read alike, the source gives them in different places.

In the case of ristomycin, the Kd in assay [1] (VSR on cantilever, fit of equation (2), pH 7.4 sodium phosphate buffer, read-out: Ksurf Cantilever (surface equilibrium dissociation constant)) was 0.9 ± 0.5 µM; in [2] (VRR on cantilever, fit of equation (2), pH 7.4 sodium phosphate buffer, read-out: Ksurf Cantilever (surface equilibrium dissociation constant)), 32 ± 17 µM; in assay [4] it was 0.2 µM; in assay [5] it was 6.7 µM; at VSR (Ac-VSR) in solution, 1.7 µM; at VRR in solution it was 3850 µM. In addition, the Kd in assay [6] was 3000 µM. The “maximum stress data, Mean” value in assay [1] (VSR, 4 chips, one-way ANOVA table S5) amounted to 34.5; in [2] (VRR, 4 chips, one-way ANOVA table S4), 7.5. In addition, the “Mean difference of stress, VSR versus VRR” value in [1] (independent samples t-test, 4 chips, table S6) amounted to 27.0. For the same substance, the compressive surface stress in assay [2] (10 μM antibiotic against VRR) is on record as ~ 2 mNm^−1. Besides, the “concentration required to reach indistinguishable maximum signals” value in [2] (VRR) is “more than 1000 μM”. Also, the MIC in [3] amounted to 8.0 µg/mL; in assay [3] (converted from mg/l) it was 3.69 µM. Further, the “MIC VRE” value in assay [7] is 512 µg/mL. In addition, the “MIC VSE” value in [8] was 12.5 µg/mL.
